Measured values taken from patent US20240343713A1, “TELOMERASE INHIBITOR COMPOUNDS” (Geron Corporation, priority 2023, published 2024).

Experiments:
[1] = for deaths after first dose reduction: 25 mg/Kg (Compound 1, Compound 2) or 10 mg/Kg (Compound 3) PO on Day-10 and Day-12, deaths Day 11-13; for animals lost due to overdose early in the study: initial dosing 50 mg/Kg then 25 or 10 mg/Kg PO, 7 animals per group
Description: 7.1 Body Weight. The body weight data of NOD-SCID mice used for this study involving different treatment groups (Vehicle Control, 10 mg/Kg of the three treatment groups and 50 mg/Kg of the reference standard) was monitored every alternate day.

[2] = system: LUC-MOLM13 cell line; conditions: for leukemia cell burden / tumor load by bioluminescence imaging (BLI), overall: male NOD-SCID mice, LUC-MOLM13 i.v., PO alternate days, test compounds finally 10 mg/Kg, BIBR-1532 50 mg/Kg, up to Day 28, vs vehicle control
Description: Screening of anticancer activity of compounds in an efficacy model using Luc-MOLM13 cell line
The efficacy study was conducted to assess the tumor regression of Compound 1, Compound 2, and Compound 3 shown below in male NOD-SCID mice using LUC-MOLM13 cell line. Individual animals were assigned identification markings on the ear.
Each mouse was intravenously injected with 1 million LUC-MOLM13 tumor cells in a total volume of 0.1 mL in DPBS and this would be considered as Day 0. Luciferin (150 mg/Kg body weight) was planned to be injected (JP) 5 mins before imaging and sequential 1-2 images of mice were planned every 1 minute. The animals were planned to be dosed with test compounds from Day 10 onwards by oral route at doses of 50 mg/Kg every alternate day.
The efficacy study was conducted to assess the inhibitory effect of Compound 1, Compound 3 and Compound 2 on leukemia cell expansion in male NOD-SCID mice using LUC-MOLM13 cell line.
1 million of LUC-MOLM13 cells/100 μL were suspended in DPBS and were inoculated per mouse via intravenous route in the lateral tail vein in NOD SCID male mice (Fed animals) of 6 to 8 weeks old after 7 days of acclimatization. This was considered as Day-0 of the study.
Luciferin (150 mg/Kg body weight) was injected (IP) 5 mins before imaging and sequential 1-2 images of mice were taken every 1 minute.
Bioluminescence imaging for tumor evaluation was done on Days 0, 5, 10, 15, 18, 21 and 28 respectively along with regular body weight monitoring. The following observations were monitored at regular intervals: body weight (% body weight loss), frequencies of leukemic cells (LUC-MOLM13) in hematopoietic organs and non-lymphoid tissues using imaging on an IVIS spectrum imager for tumor burden evaluation.
Other observations included any clinical signs/observations upon dosing. […] A range of tissues were collected including brain, axillary lymph node, eyes, branchial lymph node, lungs, heart, stomach, liver, kidney, spleen, cervical lymph node, mesenteric lymph node, inguinal lymph node, GI tract and male reproductive organ. Growth kinetics of Luc-MOLM13 cells was monitored based on BLI along with survival curve.
Initial plan was to dose from Day 10 onwards by oral route at doses of 50 mg/Kg every alternate day; however, we initiated the dosing from Day-8 onwards based on few reports [7, 8]. […] BIBR-1532 dosing was maintained at 50 mg/Kg every alternate day. […] Dosing was stopped for the next 4 days for all test compounds and BIBR-1532 considering the animal health condition. […]
The data for bioluminescence imaging levels (BLI (Avg Radiance) was captured from the instrument across the individual groups for the ROI (region of interest (ROI) and the average radiance was calculated to understand the levels as compared to vehicle control (Group 3).

Row | SMILES | overall animal health ([1]; LUC-MOLM13 tumor-bearing NOD-SCID mice, test compounds 10 mg/Kg, BIBR-1532 50 mg/Kg PO) | bioluminescence (average radiance) on Day 21 ([2]; Day 21, test compounds 10 mg/Kg, BIBR-1532 50 mg/Kg PO) | survival curve / deaths ([2]; after dose reduction, test compounds 10 mg/Kg, BIBR-1532 50 mg/Kg PO alternate days, until Day 34) | leukemia cell burden / tumor load by bioluminescence imaging (BLI), overall [2] | deaths after first dose reduction [1] | animals lost due to overdose early in the study [1] | loss of animals after the first dose ([1]; mouse, in vivo)
1 | C/C(=C\C(=O)Nc1ccccc1C(=O)O)c1ccc2ccccc2c1 [BIBR-1532, reference compound] | deteriorated | signal was enhanced | one death on Day 31 and another on Day 34 | repressed as the days progressed |  |  | 
2 | C=C1C(=O)OC(c2ccc(Cl)cc2-c2cnn(C)c2)C1O (stereo not shown) [Compound 3] |  |  |  | comparable impact on leukemia cell reduction to that of BIBR-1532, albeit at a lower dosage | 1 | two | one
3 | C=C1CC(c2ccc(Cl)cc2-c2cn[nH]c2)OC1=O (stereo not shown) [Compound 1] |  |  |  |  | one animal each on Day 12 and Day-13 | two | 
